Tests used:
[1] = system: Puccinia recondita f. sp. tritici; test: Test B: test suspension sprayed on wheat seedlings one day before inoculation with Puccinia recondita f. sp. tritici spores (wheat leaf rust), disease rating; format: in vivo; settings: 100 = 100% disease control, 0 = no control
Excerpt: General protocol for preparing test suspensions for Tests A-C: the test compounds were first dissolved in acetone in an amount equal to 3% of the final volume and then suspended at the desired concentration (in ppm) in acetone and purified water (50/50 mix by volume) containing 250 ppm of the surfactant PEG400 (polyhydric alcohol esters). The resulting test suspensions were then used in Tests A-C. The test solution was sprayed to the point of run-off on wheat seedlings. The following day the seedlings were inoculated with a spore suspension of Puccinia recondita f. sp. tritici (the causal agent of wheat leaf rust) and incubated in a saturated atmosphere at 20° C. for 24 h, and then moved to a growth chamber at 20° C. for 6 days, after which time disease ratings were made. Results for Tests A-C are given in Table A. In the Table, a rating of 100 indicates 100% disease control and a rating of 0 indicates no disease control (relative to the controls). An asterisk “*” or a double asterisk “**” next to the rating value indicates a 50 ppm or 10 ppm test suspension was used, respectively. A dash (-) indicates the compound was not tested.

Phakopsora pachyrhizi = test: Test A: test suspension sprayed on soybean seedlings one day before inoculation with Phakopsora pachyrhizi spores (Asian soybean rust), visual disease rating; format: in vivo; settings: 100 = 100% disease control, 0 = no control
Excerpt: General protocol for preparing test suspensions for Tests A-C: the test compounds were first dissolved in acetone in an amount equal to 3% of the final volume and then suspended at the desired concentration (in ppm) in acetone and purified water (50/50 mix by volume) containing 250 ppm of the surfactant PEG400 (polyhydric alcohol esters). The resulting test suspensions were then used in Tests A-C.
The test solution was sprayed to the point of run-off on soybean seedlings. The following day the seedlings were inoculated with a spore suspension of Phakopsora pachyrhizi (the causal agent of Asian soybean rust) and incubated in a saturated atmosphere at 22° C. for 24 h, and then moved to a growth chamber at 22° C. for 8 days, after which time visual disease ratings were made.
Results for Tests A-C are given in Table A. In the Table, a rating of 100 indicates 100% disease control and a rating of 0 indicates no disease control (relative to the controls). An asterisk “*” or a double asterisk “**” next to the rating value indicates a 50 ppm or 10 ppm test suspension was used, respectively. A dash (-) indicates the compound was not tested.

[2] = Phakopsora pachyrhizi, 50 ppm test suspension

Structure (SMILES)	Test B rating (disease control) ([1]; 10 ppm test suspension)	Test A rating (disease control) (Phakopsora pachyrhizi; 10 ppm test suspension)	other results
C=C(C)COC(=O)c1cnn(Cc2cccc(O/C=C(\OCC)C(F)(F)F)c2)c1 [compound 335]	0%	100%	–
CC(C)OC(=O)c1cnn(Cc2ccc(OCC(O)(O)C(F)(F)F)cc2)c1 [Compound 39]	79%	91%	–
O=C(OCC(F)(F)C(F)(F)F)c1cnn(Cc2ccc(OCC(O)(O)C(F)(F)F)cc2)c1 [Compound 46]	85%	64%	–
O=C(NCC(F)(F)F)c1cnc(Cc2ccc(OCC(O)(O)C(F)(F)F)cc2)s1 [Compound 277]	45%	50%	–
O=C(NCC(F)F)c1cnc(Cc2ccc(OCC(O)(O)C(F)(F)F)cc2)s1 [Compound 295]	–	–	Test B rating (disease control) ([1]; 50 ppm test suspension): 80%; Test A rating (disease control) (Phakopsora pachyrhizi; 50 ppm test suspension): 99%
CCOC(=O)c1cnn(Cc2ccc(OCC3(C(F)(F)F)OC(=O)CS3)cc2)c1 (stereo not shown) [Compound 20]	86%	98%	–
CCO/C(=C\Oc1ccc(Cn2cnc(C(=O)OC)n2)cc1)C(F)(F)F [Compound 123]	0%	98%	–
CCO/C(=C\Oc1ccc(Cn2ccc(C(=O)OC(C)(C)C)n2)cc1)C(F)(F)F [compound 253]	0%	0%	–
CCCO/C(=C\Oc1ccc(Cn2cc(C(=O)OCC)cn2)cc1)C(F)(F)F [compound 65]	0%	100%	–
CCO/C(=C\Oc1ccc(C(C)=O)cc1)C(F)(F)F [compound 79]	–	–	Test B rating (disease control) ([1]; 50 ppm test suspension): 0%; Test A rating (disease control) (Phakopsora pachyrhizi; 50 ppm test suspension): 0%
C=CCOC(=O)c1cnn(Cc2ccc(O/C=C(\OCC)C(F)(F)F)cc2)c1 [compound 246]	0%	100%	–
CCO/C(=C\Oc1ccc(CNC(=O)CC(F)(F)F)cc1)C(F)(F)F [compound 113]	0%	0%	–
CC(C)OC(=O)c1cnn(Cc2ccc(OCC3(C(F)(F)F)OCCO3)cc2)c1 [compound 14]	0%	100%	–
FC(F)(F)C1(COc2ccc(Oc3ccccc3)cc2)OCCO1 [compound 191]	0%	0%	–
CCO/C(=C\Oc1ccc(Cc2ncc(C(=O)NCC3CC3)s2)cc1)C(F)(F)F [compound 254]	0%	73%	–
CCOC(=O)c1cnn(Cc2ccc(OCC3(C(F)(F)F)NCCO3)cc2)c1 (stereo not shown) [Compound 21]	23%	84%	–
CCOC(=O)c1cnn(Cc2ccc(COCC3(C(F)(F)F)OCCO3)cc2)c1 [compound 141]	0%	0%	–
CCOC(=O)c1cnn(Cc2ccc(O/C=C(\OCCO)C(F)(F)F)cc2)c1 [compound 145]	0%	82%	–
CCS(=O)(=O)Cc1ccc(OCC2(C(F)(F)F)OCCO2)cc1 [compound 23]	19%	0%	–
CCO/C(=C\Oc1cccc(Cn2cc(C(=O)OC(C)C)cn2)c1)C(F)(F)F [compound 332]	0%	100%	–
O=C(NCc1ccc(OCC2(C(F)(F)F)OCCO2)cc1)c1cccc(C(F)(F)F)c1 [compound 179]	0%	0%	–
CCO/C(=C\Oc1ccc(COC(N)=O)cc1)C(F)(F)F [compound 193]	86%	0%	–
COC(=O)NN=Cc1ccc(OCC2(C(F)(F)F)OCCO2)cc1 [compound 27]	0%	0%	–
O=Cc1ccc(OCC(O)(O)C(F)(F)F)cc1 [Compound 177]	–	–	Test B rating (disease control) ([1]; 50 ppm test suspension): 89%; Test A rating (disease control) (Phakopsora pachyrhizi; 50 ppm test suspension): 100%
CCO/C(=C\Oc1ccc(Cn2cncn2)cc1)C(F)(F)F [Compound 157]	9%	0%	–

Structure (SMILES)	Test B rating (disease control) ([1]; 10 ppm test suspension)	Test A rating (disease control) (Phakopsora pachyrhizi; 10 ppm test suspension)	other results
N#CCc1ccc(OCC2(C(F)(F)F)OCCO2)cc1 [compound 239]	0%	0%	–
CCO/C(=C\Oc1cccc(Cn2cc(C(=O)OCC3CC3)cn2)c1)C(F)(F)F [compound 341]	0%	100%	–
O=[N+]([O-])c1ccc(OCC2(C(F)(F)F)OCCO2)cc1 [compound 166]	95%	100%	–
CCOC(=O)c1cnn(Cc2ccc(CCC(O)(O)C(F)(F)F)cc2)c1 [Compound 66]	–	–	Test B rating (disease control) ([1]; 50 ppm test suspension): 89%; Test A rating (disease control) (Phakopsora pachyrhizi; 50 ppm test suspension): 92%
CCO/C(=C\Oc1ccc(Cn2ncnc2SC)cc1)C(F)(F)F [Compound 260]	0%	0%	–
CCO/C(=C\Oc1cccc(Cn2cc(C(=O)OCC(C)C)cn2)c1)C(F)(F)F [compound 334]	0%	100%	–
CCO/C(=C\Oc1ccc(Cn2c(=O)oc3ccccc32)cc1)C(F)(F)F [compound 226]	0%	0%	–
CCOC(=O)c1cnn(COc2ccc(O/C=C(\OCC)C(F)(F)F)cc2)c1 [Compound 364, ethyl 1-[[4-[[(1Z)-2-ethoxy-3,3,3-trifluoro-1-propen-1-yl]oxy]phenoxy]methyl]-1H-pyrazole-4-carboxylate]	–	–	pest or weed control at 50 ppm ([1]; 50 ppm test suspension): 0%; pest or weed control at 50 ppm (Phakopsora pachyrhizi; [2]): 100%
CCO/C(=C\Oc1ccc(Cc2ccnc(OCC[Si](C)(C)C)n2)cc1)C(F)(F)F [compound 313]	–	–	Test B rating (disease control) ([1]; 50 ppm test suspension): 0%; Test A rating (disease control) (Phakopsora pachyrhizi; 50 ppm test suspension): 0%
O=C(NCC1CC1)c1csc(Cc2ccc(OCC(O)(O)C(F)(F)F)cc2)n1 [Compound 69]	96%	98%	–
CCOC(=O)c1cnn(COCc2ccc(O/C=C(\OCC)C(F)(F)F)cc2)c1 [Compound 297, ethyl 1-[[4-[[(1Z)-2-ethoxy-3,3,3-trifluoro-1-propen-1-yl]oxy]phenylmethoxy]methyl]-1H-pyrazole-4-carboxylate]	–	–	pest or weed control at 10 ppm ([1]; 10 ppm test suspension): 0%; pest or weed control at 10 ppm (Phakopsora pachyrhizi; Phakopsora pachyrhizi, 10 ppm test suspension): 100%
O=C(NCc1ccc(OCC2(C(F)(F)F)OCCO2)cc1)C1CC1 [compound 176]	0%	0%	–
N#Cc1ccc(OCC(O)(O)C(F)(F)F)cc1 [Compound 142]	100%	92%	–
CCOC(=O)c1ccc2c(cnn2Cc2ccc(OCC3(C(F)(F)F)OCCO3)cc2)c1 [compound 160]	0%	13%	–
CCCCCCOC(=O)c1cnn(Cc2ccc(OCC3(C(F)(F)F)OCCO3)cc2)c1 [compound 16]	0%	99%	–
CCOC(=O)NCc1ccc(O/C=C(\OCC)C(F)(F)F)cc1 [compound 111]	0%	0%	–
CCO/C(=C\Oc1ccc(C(=O)OC)cc1)C(F)(F)F [compound 230]	0%	0%	–
C=CCOC(=O)c1cnn(Cc2ccc(OCC(O)(O)C(F)(F)F)cc2)c1 [Compound 43]	60%	96%	–
CCOC(=O)c1cnn(Cc2ccc(C(O)CC(O)(O)C(F)(F)F)cc2)c1 (stereo not shown) [Compound 51]	0%	0%	–
O=C(OCc1ccncc1)c1cnn(Cc2ccc(OCC3(C(F)(F)F)OCCO3)cc2)c1 [compound 201]	0%	100%	–
CCO/C(=C\Oc1ccc(Cn2nccc2C(=O)OC)cc1)C(F)(F)F [compound 250]	0%	0%	–
CCOC(=O)c1cnn(Cc2cccc(O/C=C(\OCC)C(F)(F)F)c2F)c1 [compound 301]	–	–	pest or weed control at 50 ppm ([1]; 50 ppm test suspension): 0%; pest or weed control at 50 ppm (Phakopsora pachyrhizi; [2]): 100%
CCO/C(=C\Oc1ccc(S(C)(=O)=O)cc1)C(F)(F)F [compound 60]	0%	0%	–
CCO/C(=C\Oc1ccc(C=O)cc1)C(F)(F)F [compound 148]	0%	0%	–
CCOC(=O)c1cnn(Cc2ccc(O/C=C(\OCCOC)C(F)(F)F)cc2)c1 [compound 54]	0%	0%	–
